Data reported in paper PMC7002685, “Inhibition of vascular calcification by inositol phosphates derivatized with ethylene glycol oligomers” (Nature Communications, 2020).
Several values for one entry are separate records, joined by “and”; a condition that tells them apart may be missing. Identical values can stand only once.

Assays:
[1] = molecular target: T1, Cannabinoid CB1 (Homo sapiens, UniProt P21554); test: Off-target 217030; assay type: binding
T1 construct: purchased Eurofins Panlabs Discovery Services Taiwan, Ltd
Procedure: (§1) The potential off-target activity of 10 µM (OEG2)2-IP4 was assessed against a panel of 87 enzymes, receptors, or ion channels that are used in standard safety pharmacology screens.
(§2) 3.2. Off-target screening assay
(§3) The experiments were conducted by a contract research organization (Eurofins Panlabs Discovery Services Taiwan, Ltd.) and details on the respective assays can be retrieved via the catalog number provided in Supplementary Table 11 from the company’s webpage
(§4) (https://www.eurofinsdiscoveryservices.com/). […]
(§5) At sacrifice the left tibia of animals of the rat model with dietary adenine/high-phosphate-induced uremia and VC was collected, fixed with 70% v/v EtOH and embedded in methyl methacrylate. The trabecular bone compartment is known to be the most metabolic active i.e. actively re-structured bone compartment in CKD. Therefore, histomorphometric and micro-computed tomography (µCT) analysis of bone was performed on the trabecular compartment. Tibial sections were Goldner-stained for histomorphometric analysis of the proximal metaphysis using the AxioVision Release 4.5 software, as […]
(§6) described previously5. […]

[2] = Plasma calcium after s.c. administration in healthy rats; assay type: in vivo, rat; settings: 50 mg/kg s.c., acute or sub-chronic (7 days), at tmax of 30 min
[3] = molecular target: T2, Opiate δ1 (OP1, DOP) (Homo sapiens, UniProt P41143); test: Off-target 260130; assay type: binding
T2 construct: purchased Eurofins Panlabs Discovery Services Taiwan, Ltd
Procedure: as §1, §2
(§7) The experiments were conducted by a contract research organization (Eurofins Panlabs Discovery
(§8) Services Taiwan, Ltd.) and details on the respective assays can be retrieved via the catalog number
(§9) provided in Supplementary Table 11 from the company’s webpage
as §4

[4] = test system: GABAA, Chloride Channel, TBOB; test: Off-target 226810; assay type: binding, Rat; settings: 10 µM
Procedure: as §1, §2, §7, §8, §9, §4

[5] = 18F-NaF micro-PET/CT uptake on calcified human aortic valves ex vivo; assay type: binding
Procedure: To investigate (OEG2)2-IP4 interaction with calcified tissues in a clinically relevant context, a competitive binding assay using ^18F-NaF was applied on severely calcified human femoral arteries and native aortic valves ex vivo. […] First, ^18F-NaF uptake was measured on tissue samples treated with vehicle (human serum) and thereafter, using the same tissue samples, treated with (OEG2)2-IP4 in serum.
Triplicate aliquots of CPP2s (20 µg Ca/mL) in 100 μL assay buffer (100 mM HBS, pH 7.4 (RT)) were incubated for 1 h at RT in the presence of increasing concentrations of compounds in 50 μL Milli-Q water and ^18F-NaF (1 nM) in 50 μL assay buffer, resulting in a total incubation volume of 200 μL (^18F-NaF was prepared using a FASTlab synthesizer (GE Healthcare, Little Chalfont, UK) and commercially available ^18F-NaF cassettes (GE Healthcare)). Maximum radiotracer binding was determined by incubating CPP2s with ^18F-NaF (1 nM) only. The reaction was terminated by rapid filtration through a SOLAμ™ SPE plate (HRP 2 mg/mL 96-well plate, 22 μm; Thermo Fisher Scientific). SPE individual column matrices were washed twice rapidly in assay buffer and radioactivity on the filters determined by an automatic gamma counter (Wizard2 Gamma Counter, Perkin Elmer, Waltham, MA, USA). […]

[6] = molecular target: T3, Cannabinoid CB2 (Homo sapiens, UniProt P34972); test: Off-target 217100; assay type: binding
T3 construct: purchased Eurofins Panlabs Discovery Services Taiwan, Ltd
Procedure: as §1, §2, §3, §4, §5, §6

[7] = molecular target: T4, Phosphodiesterase PDE3 (Homo sapiens, UniProt Q14432); test: Off-target 152000; assay type: biochemical
T4 construct: purchased Eurofins Panlabs Discovery Services Taiwan, Ltd
Procedure: as §1, §2, §7, §8, §9, §4

[8] = molecular target: T5, Peptidase, Angiotensin Converting Enzyme (Oryctolagus cuniculus, UniProt P12822); test: Off-target 107300; assay type: biochemical, Rabbit
T5 construct: purchased Eurofins Panlabs Discovery Services Taiwan, Ltd
Procedure: as §1, §2, §7, §8, §9, §4

[9] = molecular target: T6, α2B (Homo sapiens, UniProt P18089); test: Off-target 203710; assay type: binding
T6 construct: purchased Eurofins Panlabs Discovery Services Taiwan, Ltd
Procedure: as §1, §2, §7, §8, §9, §4

[10] = Plasma calcium after s.c. administration in healthy rats; assay type: in vivo, rat; settings: individual rats
Procedure: One potential side effect of inositol phosphate-based drugs is toxicity due to chelation of ionized serum calcium. […] At 100 µM (OEG2)2-IP4, 96 ± 2% of control serum-ionized calcium was measured.
To study PK in healthy animals, male Sprague-Dawley rats (Harlan, Correzzana, Italy) were housed up to three per cage with free access to water and standard chow (pellets 12 mm, global diet 2018 certificate, Mucedola, Srl, Settimo Milanese, Italy), and submitted to a 12-h light/dark cycle. Animals were administered i.v. 10 mg/kg of (OEG2)2-IP4 in saline solution i.v. (30 s bolus, 5 mL/kg) and s.c. (5 mL/kg), respectively, in three animals per route and treatment. […] Plasma calcium concentration was determined in pre-dose samples and in t = 30 min samples of both acute and chronic treatments using the calcium colorimetric assay. Blood samples of 100 µL were drawn at several time points from the caudal vein, centrifuged at (3000 × g, 4 °C, 10 min) and stored at −80 °C until analysis by liquid chromatography–tandem mass spectrometry (LC-MS/MS).

T1 sequence (P21554 whole entry): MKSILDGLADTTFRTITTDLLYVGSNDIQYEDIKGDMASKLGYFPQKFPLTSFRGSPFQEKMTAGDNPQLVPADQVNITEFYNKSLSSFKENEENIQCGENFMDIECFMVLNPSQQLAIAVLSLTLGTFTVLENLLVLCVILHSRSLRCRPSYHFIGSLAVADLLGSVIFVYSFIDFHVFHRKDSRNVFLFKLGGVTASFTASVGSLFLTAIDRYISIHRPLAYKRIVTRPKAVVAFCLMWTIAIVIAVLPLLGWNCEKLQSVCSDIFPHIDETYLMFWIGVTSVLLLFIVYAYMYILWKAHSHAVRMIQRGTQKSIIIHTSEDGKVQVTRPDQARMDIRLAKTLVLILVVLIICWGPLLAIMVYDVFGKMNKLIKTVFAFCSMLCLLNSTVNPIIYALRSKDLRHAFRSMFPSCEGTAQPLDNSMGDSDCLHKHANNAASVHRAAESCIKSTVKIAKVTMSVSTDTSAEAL
T2 sequence (P41143 whole entry): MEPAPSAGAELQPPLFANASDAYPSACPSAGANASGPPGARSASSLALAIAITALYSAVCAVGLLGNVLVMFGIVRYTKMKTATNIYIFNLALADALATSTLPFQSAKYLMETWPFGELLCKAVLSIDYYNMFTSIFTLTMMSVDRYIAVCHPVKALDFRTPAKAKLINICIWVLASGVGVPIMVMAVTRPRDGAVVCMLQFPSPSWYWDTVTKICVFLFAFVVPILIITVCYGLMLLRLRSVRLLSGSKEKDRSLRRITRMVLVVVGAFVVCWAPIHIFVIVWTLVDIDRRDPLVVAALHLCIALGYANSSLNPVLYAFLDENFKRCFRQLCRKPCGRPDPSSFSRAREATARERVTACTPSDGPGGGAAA
T3 sequence (P34972 whole entry): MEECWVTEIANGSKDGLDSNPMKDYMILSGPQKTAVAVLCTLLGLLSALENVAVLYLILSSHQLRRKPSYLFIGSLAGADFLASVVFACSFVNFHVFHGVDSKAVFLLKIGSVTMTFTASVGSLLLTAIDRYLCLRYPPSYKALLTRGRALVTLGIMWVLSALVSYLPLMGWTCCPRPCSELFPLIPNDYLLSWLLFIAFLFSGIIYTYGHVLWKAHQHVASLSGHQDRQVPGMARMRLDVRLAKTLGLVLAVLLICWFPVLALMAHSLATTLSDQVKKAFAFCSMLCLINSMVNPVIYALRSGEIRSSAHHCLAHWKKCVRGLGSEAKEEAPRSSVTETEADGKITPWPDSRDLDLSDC
T4 sequence (Q14432 whole entry): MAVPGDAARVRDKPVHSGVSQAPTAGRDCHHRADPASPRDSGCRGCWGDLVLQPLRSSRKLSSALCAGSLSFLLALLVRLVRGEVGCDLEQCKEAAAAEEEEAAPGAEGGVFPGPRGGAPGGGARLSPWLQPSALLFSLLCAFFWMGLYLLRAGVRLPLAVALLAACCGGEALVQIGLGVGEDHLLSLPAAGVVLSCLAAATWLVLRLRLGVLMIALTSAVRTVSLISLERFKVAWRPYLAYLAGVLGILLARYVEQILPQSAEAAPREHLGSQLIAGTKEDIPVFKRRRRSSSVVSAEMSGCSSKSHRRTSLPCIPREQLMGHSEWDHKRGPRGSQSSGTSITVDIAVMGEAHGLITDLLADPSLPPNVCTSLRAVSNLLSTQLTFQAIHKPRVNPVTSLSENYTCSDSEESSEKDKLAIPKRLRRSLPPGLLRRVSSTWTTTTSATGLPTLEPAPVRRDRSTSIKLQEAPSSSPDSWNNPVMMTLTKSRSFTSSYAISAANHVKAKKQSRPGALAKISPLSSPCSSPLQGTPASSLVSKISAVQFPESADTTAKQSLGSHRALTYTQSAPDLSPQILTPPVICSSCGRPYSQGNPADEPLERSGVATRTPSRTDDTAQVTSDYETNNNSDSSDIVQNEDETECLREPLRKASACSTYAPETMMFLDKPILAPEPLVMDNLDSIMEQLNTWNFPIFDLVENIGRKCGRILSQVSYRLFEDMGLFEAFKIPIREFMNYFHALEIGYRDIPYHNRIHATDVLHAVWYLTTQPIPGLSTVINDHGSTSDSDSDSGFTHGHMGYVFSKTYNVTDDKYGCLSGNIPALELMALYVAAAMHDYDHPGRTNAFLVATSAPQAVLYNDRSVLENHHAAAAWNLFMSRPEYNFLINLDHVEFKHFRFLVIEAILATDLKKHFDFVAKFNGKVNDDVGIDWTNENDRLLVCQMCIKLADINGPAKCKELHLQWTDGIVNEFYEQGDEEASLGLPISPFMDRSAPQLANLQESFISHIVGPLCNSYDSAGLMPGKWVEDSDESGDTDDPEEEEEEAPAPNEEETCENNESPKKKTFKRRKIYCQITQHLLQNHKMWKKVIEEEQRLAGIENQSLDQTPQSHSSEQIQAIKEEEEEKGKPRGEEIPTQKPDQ
T5 sequence (P12822 34-1310): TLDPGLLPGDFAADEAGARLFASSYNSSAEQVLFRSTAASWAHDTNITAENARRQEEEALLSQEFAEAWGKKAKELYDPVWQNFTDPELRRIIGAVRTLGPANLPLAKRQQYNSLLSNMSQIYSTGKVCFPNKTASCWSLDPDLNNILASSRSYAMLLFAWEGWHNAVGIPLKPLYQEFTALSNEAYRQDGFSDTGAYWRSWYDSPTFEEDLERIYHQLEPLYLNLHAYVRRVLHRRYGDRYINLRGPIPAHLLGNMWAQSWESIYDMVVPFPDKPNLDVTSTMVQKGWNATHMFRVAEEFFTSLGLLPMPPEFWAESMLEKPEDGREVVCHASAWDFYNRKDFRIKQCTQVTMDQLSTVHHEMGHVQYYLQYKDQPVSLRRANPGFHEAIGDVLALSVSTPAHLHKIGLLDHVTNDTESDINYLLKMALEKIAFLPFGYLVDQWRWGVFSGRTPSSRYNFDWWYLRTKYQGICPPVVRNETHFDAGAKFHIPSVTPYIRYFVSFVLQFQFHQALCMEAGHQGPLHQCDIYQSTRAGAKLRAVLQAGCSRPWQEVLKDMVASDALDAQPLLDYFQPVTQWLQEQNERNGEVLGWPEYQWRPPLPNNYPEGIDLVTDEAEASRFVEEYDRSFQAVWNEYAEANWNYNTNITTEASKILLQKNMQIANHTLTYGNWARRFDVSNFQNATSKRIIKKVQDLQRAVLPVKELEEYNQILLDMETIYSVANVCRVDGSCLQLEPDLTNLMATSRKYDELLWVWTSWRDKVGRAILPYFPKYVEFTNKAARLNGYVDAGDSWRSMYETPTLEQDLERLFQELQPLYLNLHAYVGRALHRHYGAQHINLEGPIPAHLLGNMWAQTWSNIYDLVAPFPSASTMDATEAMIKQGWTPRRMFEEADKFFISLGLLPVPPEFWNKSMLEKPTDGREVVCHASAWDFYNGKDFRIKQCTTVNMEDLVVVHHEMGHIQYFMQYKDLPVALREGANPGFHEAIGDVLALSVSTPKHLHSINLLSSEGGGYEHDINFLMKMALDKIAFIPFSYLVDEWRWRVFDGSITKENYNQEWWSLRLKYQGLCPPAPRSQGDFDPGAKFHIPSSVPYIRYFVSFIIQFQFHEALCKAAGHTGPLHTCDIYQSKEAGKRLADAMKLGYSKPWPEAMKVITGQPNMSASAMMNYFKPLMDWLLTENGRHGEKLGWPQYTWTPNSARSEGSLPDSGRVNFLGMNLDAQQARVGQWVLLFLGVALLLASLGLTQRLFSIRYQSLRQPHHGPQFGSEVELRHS
T6 sequence (P18089 whole entry): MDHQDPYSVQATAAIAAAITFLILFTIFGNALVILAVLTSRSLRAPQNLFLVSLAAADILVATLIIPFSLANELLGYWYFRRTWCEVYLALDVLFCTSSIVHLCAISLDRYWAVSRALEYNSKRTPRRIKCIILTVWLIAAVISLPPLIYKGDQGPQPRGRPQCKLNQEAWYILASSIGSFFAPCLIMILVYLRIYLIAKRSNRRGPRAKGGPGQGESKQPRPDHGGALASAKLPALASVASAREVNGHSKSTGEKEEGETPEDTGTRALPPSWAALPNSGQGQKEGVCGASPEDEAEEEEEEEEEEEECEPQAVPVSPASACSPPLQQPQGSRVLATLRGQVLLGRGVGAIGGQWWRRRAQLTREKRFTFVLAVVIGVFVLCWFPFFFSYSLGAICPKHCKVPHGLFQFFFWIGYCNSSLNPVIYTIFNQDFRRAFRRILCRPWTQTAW

## COCCOCCO[C@@H]1[C@@H](OP(=O)(O)O)[C@H](OCCOCCOC)[C@@H](OP(=O)(O)O)[C@@H](OP(=O)(O)O)[C@H]1OP(=O)(O)O [(OEG2)2-IP4, 4,6-Di-O-(methoxy-diethyleneglycol)-myo-inositol-1,2,3,5-tetrakis(phosphate)]
[1]
  inhibition at 10 µM: -7%
[2]
  lowering of serum calcium: No significant lowering of serum calcium
[3]
  inhibition at 10 µM: -2%
[4]
  % Inhibition: -19%
[5]; 8.6 μM in human serum
  change of 18F-NaF uptake vs vehicle: −33%
[5]; IC90 concentration in human serum, individual samples Fig. 3k, unit not given
  maximum average 18F binding (18F-NaF-PET): 547.591 and 685.802 and 706.308
[6]
  inhibition at 10 µM: 12%
[7]
  inhibition at 10 µM: -1%
[8]
  inhibition at 10 µM: -23%
[9]
  inhibition at 10 µM: 3%
[10]; Acute, 30 min postdose
  plasma calcium (Figure 4k): 2.45 and 2.725 and 1.925 and 1.85
[10]; Acute, Predose
  plasma calcium (Figure 4k): 2.8 and 2.45 and 2.3 and 1.975
[10]; Sub-chronic, 30 min postdose
  plasma calcium (Figure 4k): 2.175 and 2.2 and 2.05 and 1.925
[10]; Sub-chronic, Predose
  plasma calcium (Figure 4k): 2.275 and 2.3 and 2.55 and 1.925
